Columns and labels:
ORYSAT (Rice, Tebonnet) [1] = experiment: Postemergence herbicidal evaluation; type: in vivo, Oryza sativa, (L.) Tebonnet
Procedure, shortened: (§1)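 Seedlings grown for about two weeks were sprayed postemergence and then kept under standard greenhouse care. Injury was rated visually 4–5 weeks after treatment on a 0–9 scale against untreated controls, and ratings from repeat tests were averaged.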

[2] = tested on: IPOHE (Ipomoea hederacea); experiment: Preemergence herbicidal evaluation; type: in vivo, (L.) Jacq.; details: preemergence, rated 4-5 weeks after treatment
[3] = tested on: IPOHE (Ipomoea hederacea); experiment: Postemergence herbicidal evaluation; type: in vivo, (L.) Jacq.
Procedure, shortened: as §1

[4] = tested on: ABUTH (Abutilon theophrasti); experiment: Preemergence herbicidal evaluation; type: in vivo, Medic.; details: preemergence, rated 4-5 weeks after treatment
ZEAMX (Corn, Field) = experiment: Preemergence herbicidal evaluation; type: in vivo, Zea mays, L.; details: preemergence, rated 4-5 weeks after treatment
[5] = tested on: ECHCG (Echinochloa crus-galli); experiment: Preemergence herbicidal evaluation; type: in vivo, (L.) Beau; details: preemergence, rated 4-5 weeks after treatment
Procedure, shortened: (§2)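 Test compound is applied in aqueous acetone to cups just after seeding. Cups are watered and maintained on greenhouse benches. Each cup is scored 0–9 by eye relative to a control after four to five weeks.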

SETVI (Setaria viridis) = experiment: Preemergence herbicidal evaluation; type: in vivo, (L.) Beau; details: preemergence, rated 4-5 weeks after treatment
Procedure, shortened: as §2

ORYSAT (Rice, Tebonnet) [6] = experiment: Flooded paddy, post-transplant rice tolerance; type: in vivo, Oryza sativa, (L.) Tebonnet; details: flooded paddy, post-transplant rice, rated 3-4 weeks after treatment, 0-9 rating scale
Procedure, shortened: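 Visual 0–9 injury rating against a control, covering stand, vigor, malformation, size, chlorosis and overall appearance. Treatment was post-transplant onto flooded containers (water 1.5–3 cm deep, silt loam) holding two ten-day-old cv. Tebonnet seedlings, maintained on greenhouse benches.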

[7] = tested on: TRZAWR (Wheat, Winter, cv Riband); experiment: Preemergence herbicidal evaluation; type: in vivo, Triticum aestivum; details: preemergence, rated 4-5 weeks after treatment
Procedure, shortened: as §2

CYPIR (Cyperus iria) = experiment: Flooded paddy, preemergence weed control; type: in vivo; details: rated 3-4 weeks after treatment, 0-9 rating scale
Procedure, shortened: (§3)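 Visual 0-9 rating versus control, scoring stand, vigor, malformation, size, chlorosis and overall appearance. Silt loam soil, propagules in top 0.5 cm; flood depth 1.5–3 cm held for the whole test; greenhouse.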

[8] = tested on: CHEAL (Chenopodium album); experiment: Postemergence herbicidal evaluation; type: in vivo, L.
Procedure, shortened: as §1

[9] = tested on: AMBEL (Ambrosia artemisifolia); experiment: Postemergence herbicidal evaluation; type: in vivo, L.
Procedure, shortened: as §1

[10] = tested on: CASOB (Cassia obtusifolia); experiment: Postemergence herbicidal evaluation; type: in vivo, L.
Procedure, shortened: as §1

[11] = tested on: CHEAL (Chenopodium album); experiment: Preemergence herbicidal evaluation; type: in vivo, L.; details: preemergence, rated 4-5 weeks after treatment
Procedure, shortened: as §2

[12] = tested on: AMBEL (Ambrosia artemisifolia); experiment: Preemergence herbicidal evaluation; type: in vivo, L.; details: preemergence, rated 4-5 weeks after treatment
Procedure, shortened: as §2

[13] = tested on: CASOB (Cassia obtusifolia); experiment: Preemergence herbicidal evaluation; type: in vivo, L.; details: preemergence, rated 4-5 weeks after treatment
Procedure, shortened: as §2

[14] = tested on: GLXMAW (Soybean, Williams); experiment: Preemergence herbicidal evaluation; type: in vivo, Glycine max, (L.) Merr. cv Williams; details: preemergence, rated 4-5 weeks after treatment
[15] = tested on: ABUTH (Abutilon theophrasti); experiment: Postemergence herbicidal evaluation; type: in vivo, Medic.
Procedure, shortened: as §1

[16] = tested on: MOOVA (Monochoria vaginalis); experiment: Flooded paddy, preemergence weed control; type: in vivo, Presl.; details: rated 3-4 weeks after treatment, 0-9 rating scale
Procedure, shortened: as §3

[17] = tested on: GLXMAW (Soybean, Williams); experiment: Postemergence herbicidal evaluation; type: in vivo, Glycine max, (L.) Merr. cv Williams
Procedure, shortened: as §1

## Cc1nnc(-c2nsc3ccc(-n4c(=O)cc(C(F)(F)F)n(C)c4=O)cc23)s1 [Compound 17, 1-methyl-3-[3-(5-methyl-1,3,4-thiadiazol-2-yl)-1,2-benzisothiazol-5-yl]-6-(trifluoromethyl)uracil]
ORYSAT (Rice, Tebonnet) [1]; rate 0.0320 kg/ha
  Postemergence herbicidal rating, ORYSAT: 1.0
ORYSAT (Rice, Tebonnet) [1]; rate 0.0620 kg/ha
  Postemergence herbicidal rating, ORYSAT: 1.5
ORYSAT (Rice, Tebonnet) [1]; rate 0.1250 kg/ha
  Postemergence herbicidal rating, ORYSAT: 2.0
ORYSAT (Rice, Tebonnet) [1]; rate 0.2500 kg/ha
  Postemergence herbicidal rating, ORYSAT: 7.5
[2]; Rate 0.0620 kg/ha
  IPOHE preemergence herbicidal rating: 0.0
[2]; Rate 0.1250 kg/ha
  IPOHE preemergence herbicidal rating: 2.0
[2]; Rate 0.2500 kg/ha
  IPOHE preemergence herbicidal rating: 9.0
[3]; rate 0.0320 kg/ha
  Postemergence herbicidal rating, IPOHE: 9.0
[3]; rate 0.0620 kg/ha
  Postemergence herbicidal rating, IPOHE: 9.0
[3]; rate 0.1250 kg/ha
  Postemergence herbicidal rating, IPOHE: 9.0
[3]; rate 0.2500 kg/ha
  Postemergence herbicidal rating, IPOHE: 9.0
[4]; Rate 0.0620 kg/ha
  ABUTH preemergence herbicidal rating: 9.0
[4]; Rate 0.1250 kg/ha
  ABUTH preemergence herbicidal rating: 9.0
[4]; Rate 0.2500 kg/ha
  ABUTH preemergence herbicidal rating: 9.0
ZEAMX (Corn, Field); Rate 0.0620 kg/ha
  ZEAMX preemergence herbicidal rating: 6.0
ZEAMX (Corn, Field); Rate 0.1250 kg/ha
  ZEAMX preemergence herbicidal rating: 7.0
ZEAMX (Corn, Field); Rate 0.2500 kg/ha
  ZEAMX preemergence herbicidal rating: 8.0
[5]; Rate 0.0620 kg/ha
  ECHCG preemergence herbicidal rating: 0.0
[5]; Rate 0.1250 kg/ha
  ECHCG preemergence herbicidal rating: 1.0
[5]; Rate 0.2500 kg/ha
  ECHCG preemergence herbicidal rating: 5.0
SETVI (Setaria viridis); Rate 0.0620 kg/ha
  SETVI preemergence herbicidal rating: 0.0
SETVI (Setaria viridis); Rate 0.1250 kg/ha
  SETVI preemergence herbicidal rating: 9.0
SETVI (Setaria viridis); Rate 0.2500 kg/ha
  SETVI preemergence herbicidal rating: 9.0
ORYSAT (Rice, Tebonnet) [6]; rate 0.0080 kg/ha
  herbicidal rating, ORYSAT (rice tolerance): 0.0
ORYSAT (Rice, Tebonnet) [6]; rate 0.0320 kg/ha
  herbicidal rating, ORYSAT (rice tolerance): 2.5
ORYSAT (Rice, Tebonnet) [6]; rate 0.1250 kg/ha
  herbicidal rating, ORYSAT (rice tolerance): 4.5
[7]; Rate 0.0620 kg/ha
  TRZAWR preemergence herbicidal rating: 0.0
[7]; Rate 0.1250 kg/ha
  TRZAWR preemergence herbicidal rating: 0.0
[7]; Rate 0.2500 kg/ha
  TRZAWR preemergence herbicidal rating: 5.0
CYPIR (Cyperus iria); rate 0.0080 kg/ha
  herbicidal rating, CYPIR: 0.0
CYPIR (Cyperus iria); rate 0.0320 kg/ha
  herbicidal rating, CYPIR: 3.5
CYPIR (Cyperus iria); rate 0.1250 kg/ha
  herbicidal rating, CYPIR: 7.0
[8]; rate 0.0320 kg/ha
  Postemergence herbicidal rating, CHEAL: 3.0
[8]; rate 0.0620 kg/ha
  Postemergence herbicidal rating, CHEAL: 3.0
[8]; rate 0.1250 kg/ha
  Postemergence herbicidal rating, CHEAL: 4.0
[8]; rate 0.2500 kg/ha
  Postemergence herbicidal rating, CHEAL: 9.0
[9]; rate 0.0320 kg/ha
  Postemergence herbicidal rating, AMBEL: 4.0
[9]; rate 0.0620 kg/ha
  Postemergence herbicidal rating, AMBEL: 9.0
[9]; rate 0.1250 kg/ha
  Postemergence herbicidal rating, AMBEL: 9.0
[9]; rate 0.2500 kg/ha
  Postemergence herbicidal rating, AMBEL: 9.0
[10]; rate 0.0320 kg/ha
  Postemergence herbicidal rating, CASOB: 0.0
[10]; rate 0.0620 kg/ha
  Postemergence herbicidal rating, CASOB: 0.0
[10]; rate 0.1250 kg/ha
  Postemergence herbicidal rating, CASOB: 2.0
[10]; rate 0.2500 kg/ha
  Postemergence herbicidal rating, CASOB: 2.0
[11]; Rate 0.0620 kg/ha
  CHEAL preemergence herbicidal rating: 9.0
[11]; Rate 0.1250 kg/ha
  CHEAL preemergence herbicidal rating: 9.0
[11]; Rate 0.2500 kg/ha
  CHEAL preemergence herbicidal rating: 9.0
[12]; Rate 0.0620 kg/ha
  AMBEL preemergence herbicidal rating: 4.0
[12]; Rate 0.1250 kg/ha
  AMBEL preemergence herbicidal rating: 5.0
[12]; Rate 0.2500 kg/ha
  AMBEL preemergence herbicidal rating: 9.0
[13]; Rate 0.0620 kg/ha
  CASOB preemergence herbicidal rating: 0.0
[13]; Rate 0.1250 kg/ha
  CASOB preemergence herbicidal rating: 0.0
[13]; Rate 0.2500 kg/ha
  CASOB preemergence herbicidal rating: 3.0
[14]; Rate 0.0620 kg/ha
  GLXMAW preemergence herbicidal rating: 0.0
[14]; Rate 0.1250 kg/ha
  GLXMAW preemergence herbicidal rating: 3.0
[14]; Rate 0.2500 kg/ha
  GLXMAW preemergence herbicidal rating: 5.0
[15]; rate 0.0320 kg/ha
  Postemergence herbicidal rating, ABUTH: 9.0
[15]; rate 0.0620 kg/ha
  Postemergence herbicidal rating, ABUTH: 9.0
[15]; rate 0.1250 kg/ha
  Postemergence herbicidal rating, ABUTH: 9.0
[15]; rate 0.2500 kg/ha
  Postemergence herbicidal rating, ABUTH: 9.0
[16]; rate 0.0080 kg/ha
  herbicidal rating, MOOVA: 6.0
[16]; rate 0.0320 kg/ha
  herbicidal rating, MOOVA: 9.0
[16]; rate 0.1250 kg/ha
  herbicidal rating, MOOVA: 9.0
[17]; rate 0.0320 kg/ha
  Postemergence herbicidal rating, GLXMAW: 5.0
[17]; rate 0.0620 kg/ha
  Postemergence herbicidal rating, GLXMAW: 6.5
[17]; rate 0.1250 kg/ha
  Postemergence herbicidal rating, GLXMAW: 8.0
[17]; rate 0.2500 kg/ha
  Postemergence herbicidal rating, GLXMAW: 8.5
